Measurements reported in paper PMC7056826, “Crystal Structure of the Chloroplastic Glutamine Phosphoribosylpyrophosphate Amidotransferase GPRAT2 From Arabidopsis thaliana” (Frontiers in Plant Science, 2020).

T1: AtGPRAT2 (Arabidopsis thaliana, UniProt Q9STG9)
T1 construct: gene ASE2; residues 75-561 without predicted chloroplast transit peptide, C-terminal His tag (pET22b), E. coli BL21; propeptide autocatalytically removed, first visible residue Cys87 (87-546 visible); 4Fe-4S cluster; homo-tetramer in crystal
T1 sequence (Q9STG9 87-561): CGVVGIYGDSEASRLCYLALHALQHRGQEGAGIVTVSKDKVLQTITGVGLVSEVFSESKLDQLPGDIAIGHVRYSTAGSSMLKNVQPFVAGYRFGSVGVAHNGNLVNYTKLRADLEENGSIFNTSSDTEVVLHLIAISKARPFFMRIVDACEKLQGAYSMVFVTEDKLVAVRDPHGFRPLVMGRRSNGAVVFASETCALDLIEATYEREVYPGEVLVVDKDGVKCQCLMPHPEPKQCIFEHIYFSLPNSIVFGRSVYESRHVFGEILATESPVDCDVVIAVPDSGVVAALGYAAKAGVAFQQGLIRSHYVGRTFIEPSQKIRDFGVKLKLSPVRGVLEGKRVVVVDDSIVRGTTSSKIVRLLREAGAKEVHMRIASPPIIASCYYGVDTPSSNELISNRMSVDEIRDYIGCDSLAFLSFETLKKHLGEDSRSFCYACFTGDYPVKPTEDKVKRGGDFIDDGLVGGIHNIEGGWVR

T2: AtGPRAT2 (Arabidopsis thaliana, UniProt Q9STG9, R264K)
T2 construct: gene ASE2; residues 75-561 without predicted chloroplast transit peptide, C-terminal His tag (pET22b), E. coli BL21; propeptide autocatalytically removed, first visible residue Cys87 (87-546 visible); 4Fe-4S cluster; homo-tetramer in crystal
T2 sequence (Q9STG9 87-561 R264K): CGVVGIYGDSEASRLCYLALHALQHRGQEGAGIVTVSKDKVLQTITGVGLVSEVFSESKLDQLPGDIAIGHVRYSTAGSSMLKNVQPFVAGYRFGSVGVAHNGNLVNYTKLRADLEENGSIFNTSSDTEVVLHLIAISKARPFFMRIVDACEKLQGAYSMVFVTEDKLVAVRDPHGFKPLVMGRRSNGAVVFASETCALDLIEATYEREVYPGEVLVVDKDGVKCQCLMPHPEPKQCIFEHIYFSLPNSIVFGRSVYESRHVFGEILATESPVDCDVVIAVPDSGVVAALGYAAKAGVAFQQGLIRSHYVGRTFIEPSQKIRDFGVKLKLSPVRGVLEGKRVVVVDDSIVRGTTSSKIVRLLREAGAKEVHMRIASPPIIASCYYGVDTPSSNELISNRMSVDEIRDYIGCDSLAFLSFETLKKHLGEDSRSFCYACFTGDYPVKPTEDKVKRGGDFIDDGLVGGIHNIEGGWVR

T3: AtGPRAT2 (Arabidopsis thaliana, UniProt Q9STG9, Y329A)
T3 construct: gene ASE2; residues 75-561 without predicted chloroplast transit peptide, C-terminal His tag (pET22b), E. coli BL21; propeptide autocatalytically removed, first visible residue Cys87 (87-546 visible); 4Fe-4S cluster; homo-tetramer in crystal
T3 sequence (Q9STG9 87-561 Y329A): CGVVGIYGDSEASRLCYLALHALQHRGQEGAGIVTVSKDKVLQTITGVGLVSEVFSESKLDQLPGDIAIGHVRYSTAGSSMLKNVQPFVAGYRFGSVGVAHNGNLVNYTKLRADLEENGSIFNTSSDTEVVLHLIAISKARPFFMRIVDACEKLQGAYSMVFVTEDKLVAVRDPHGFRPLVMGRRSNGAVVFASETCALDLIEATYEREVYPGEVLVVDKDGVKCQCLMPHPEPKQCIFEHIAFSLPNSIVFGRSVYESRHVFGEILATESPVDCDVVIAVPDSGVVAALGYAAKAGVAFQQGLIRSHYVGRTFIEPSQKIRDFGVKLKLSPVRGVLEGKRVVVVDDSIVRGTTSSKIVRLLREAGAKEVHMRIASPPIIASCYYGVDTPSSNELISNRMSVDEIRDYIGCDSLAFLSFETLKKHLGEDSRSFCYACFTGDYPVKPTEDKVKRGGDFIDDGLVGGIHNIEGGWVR


Columns and labels:
AtGPRAT2 [1] = molecular target: T1, AtGPRAT2; experiment: isothermal titration calorimetry, single site model; type: binding
Source text: isothermal titration calorimetry, single site model on AtGPRAT2 | isothermal titration calorimetry (ITC) assay with wildtype, R264K and Y329A mutants of AtGPRAT2

AtGPRAT2 [2] = molecular target: T2, AtGPRAT2; experiment: as above; type: binding; conditions: 20 mM HEPES pH 7.5, 200 mM NaCl, 25 °C; stated gain
AtGPRAT2 [3] = molecular target: T3, AtGPRAT2; experiment: as above; type: binding
AtGPRAT2 [4] = molecular target: T1, AtGPRAT2; experiment: coupled glutamate dehydrogenase assay, NADH at […] nm, mixed inhibition model; type: biochemical
purified protein = substrate: O=P(O)(O)OC[C@H]1O[C@H](OP(=O)(O)OP(=O)(O)O)[C@H](O)[C@@H]1O; experiment: purified protein; type: biochemical, Arabidopsis thaliana; conditions: 10 mM Gln, 37.5 mM NAD+, 110 mM potassium phosphate pH 8.0, no inhibitor
[5] = molecular target: the molecule itself; experiment: crystal structure; sitting-drop vapor diffusion at 291 K; 0.1 M sodium citrate tribasic pH 5.6, 1.5 M ammonium phosphate monobasic, 0.1 M citric acid pH 3.4; space group P3121, two molecules in the asymmetric unit; tetramer assigned with the PISA server

Kd (AtGPRAT2 [1]) [µM]	Kd (AtGPRAT2 [3]) [µM]	Ki (AtGPRAT2 [4]) [µM]	Molecule	binding abolished (AtGPRAT2 [2])	Km (purified protein) [µM]	stoichiometry N [5]
0.165 ± 0.0158	1.75 ± 0.0384	5.29	CC(C)n1nc(CC(=O)O)nc1-c1ccc(Cl)cc1 [DAS734, [5-(4-chlorophenyl)-1-isopropyl-1H-[1,2,4]triazol-3-yl]-acetic acid]	the R264K mutation abolished the binding of DAS734 to AtGPRAT2	–	–
–	–	–	Arabidopsis thaliana chloroplastic glutamine phosphoribosylpyrophosphate amidotransferase 2, AtGPRAT2^75-561 (enzyme, UniProt Q9STG9 75-561, looked up, AtGPRAT2 (At4g34740), Arabidopsis thaliana, residues 75-561, without the predicted chloroplast transit peptide; Each protomer carries a 4Fe-4S cofactor; also called GPRATase) CGVVGIYGDSEASRLCYLALHALQHRGQEGAGIVTVSKDKVLQTITGVGLVSEVFSESKLDQLPGDIAIGHVRYSTAGSSMLKNVQPFVAGYRFGSVGVAHNGNLVNYTKLRADLEENGSIFNTSSDTEVVLHLIAISKARPFFMRIVDACEKLQGAYSMVFVTEDKLVAVRDPHGFRPLVMGRRSNGAVVFASETCALDLIEATYEREVYPGEVLVVDKDGVKCQCLMPHPEPKQCIFEHIYFSLPNSIVFGRSVYESRHVFGEILATESPVDCDVVIAVPDSGVVAALGYAAKAGVAFQQGLIRSHYVGRTFIEPSQKIRDFGVKLKLSPVRGVLEGKRVVVVDDSIVRGTTSSKIVRLLREAGAKEVHMRIASPPIIASCYYGVDTPSSNELISNRMSVDEIRDYIGCDSLAFLSFETLKKHLGEDSRSFCYACFTGDYPVKPTEDKVKRGGDFIDDGLVGGIHNIEGGWVR	–	350	4
